The conditions of series [1]: zoo animals; remaining excreted unchanged; cited from earlier work.
The conditions of series [2]: horses; 0, 200, 600, 1800 and 5400 mg daily; cited from earlier work.
For series [3] the following is noted: solubilized in medium-chain triglycerides; cited from earlier work.
The conditions of series [4]: same patients; tocopherol in vegetable oil; cited from earlier work.
The conditions of series [5]: some species; even in water dispersible forms; cited from earlier work.
Series [6] is described as follows: Melt temperature of VEA/TPGS blends by differential scanning calorimetry. It is filed as physicochemical. As for the experimental part: In this example, miscibility of the blends was investigated by determining the melt temperature of various blend ratios. […] The mixture was heated and blended to a homogeneous blend and cooled to room temperature. The melting point of each blend was determined by differential scanning calorimetry.

Series [7] is described as follows: Melt temperature of VEA/Myvatex Texture Lite blends by differential scanning calorimetry. The conditions noted are these: VEA/Myvatex Texture Lite (wt. %); DSC. It counts as physicochemical. The source says: This example illustrates the affect of Myvatex Texture Lite food emulsifier on the melt temperature of VEA. The solid blend was formulated as described in Example 2.

For series [8] the following is noted: 3% aqueous solution of Tween-80; cited from earlier work.
The conditions of series [9]: rats; aqueous lecithin dispersed, containing medium chain triglycerides; cited from earlier work.
The conditions of series [10]: human, in vivo, po; cited from earlier work.

Like-named read-outs stand apart in the source and are kept apart here.

For the compound `CC(=O)Oc1c(C)c(C)c2c(c1C)CCC(C)(CCCC(C)CCCC(C)CCCC(C)C)O2` (racemic) [dl-alpha-tocopheryl acetate], the administered tocopherol absorbed result in [1] was “one-half”. The “serum tocopherol levels with increasing dosage” value in [2] is “increased almost linearly”.
In the case of `Cc1c(C)c2c(c(C)c1O)CCC(C)(CCCC(C)CCCC(C)CCCC(C)C)O2` (stereo not drawn) [tocopherol, alpha-tocopherol], in series [3], the absorption of tocopherol entry was “enhanced absorption”. Further, in series [4], the “increase of tocopherol in the blood” value is “no significant increase”. In [5], the bioavailability result is reported as “not bioavailable”.
Turning to `CC(=O)Oc1c(C)c(C)c2c(c1C)CCC(C)(CCC[C@H](C)CCC[C@H](C)CCCC(C)C)O2` (mixture of isomers) [VEA, d- or dl-alpha-tocopheryl acetate], the “Melt Temperature” value in series [6] (VEA/TPGS (wt. %), DSC) was determined as 2.9 °C; in series [7], 2.9 °C. For the same compound, the “TPGS required to solidify VEA” value in series [6] (at room temperature) is on record as 25%. The “absorption rate relative to vegetable oil solution of VEA” value in series [8] is listed as “twice the rate”. The absorption of tocopherol entry in series [9] is listed as “enhanced absorption”. In addition, the bioavailability result in [5] is recorded as “not bioavailable”.
For Vitamin E, the absorption result in series [10] is “enhanced absorption”.
Vitamin A: the absorption result in series [10] is “enhanced absorption”.

The values are drawn from patent US5179122A, “Nutritional supplement containing Vitamin E” (priority 1991, dated 1993).
